The results in this text go back to patent US11872200B2, “GABA agonists in the treatment of disorders associated with metabolic syndrome and GABA combinations in treatment or prophylaxis of type I diabetes” (The Regents of the University of California, priority 2010, dated 2024).

For test [1], the system named is HFD-fed mice. The experiment in a line: GABA in drinking water of high fat diet (HFD) fed mice. The format is in vivo. How it is done:
Mice were fed high fat diet (HFD) or “western diet” causing them to gain weight, become obese, and develop glucose intolerance, insulin resistance, and metabolic syndrome. The mice were provided either normal water, or water that contained GABA (6 mg/ml). The weight, food intake, water intake, glucose tolerance, insulin sensitivity and blood glucose levels of the mice was monitored over 5 months.

The test system of test [2] is Treg responses. The experiment in a line: In vitro culture system with IL-2 and anti-CD3. The note with it: preliminary data; IL-2 and anti-CD3 in an in vitro culture system. The format is cell-based. The source says: It is noted that the GABA treatment can both suppress autoimmune responses by working on GABA-A receptors on immune cells, and promote B-cell survival through their GABA-B receptors.

Test [3] has as its system β-cells. The experiment in a line: STZ oxidative-stress induced β-cell apoptosis, pancreas sections co-stained with TUNNEL and anti-insulin. The test is classed as in vivo, C57Bl/6 mice. Particulars: for relative area of insulin+ cells to the total area of the islets: 48 hours after STZ (FIG. 10C); for STZ mediated oxidative-stress-induced apoptosis: 48 hours after STZ, N=4 mice/group (FIG. 10A). As to the method:
C57Bl/6 mice received a moderate dose of STZ and then given plain water (control), water+GABA, or water+baclofen (a GABAB-R agonist). 48 hours later their pancreas were removed and sections co-stained with TUNNEL and anti-insulin.
N=4 mice/group, at least 100 islets analyzed per group.

The test system of test [4] is newly diabetic NOD mice. The experiment in a line: Reversal of hyperglycemia in newly diabetic NOD mice. The note with it: GABA 6 mgs/ml in drinking water, GAD/alum 100 μg sc on day 1 and 14 (FIG. 9). The test is classed as in vivo. As to the method: Mice were considered diabetic after two blood glucose>250 mgs/dL. […] Data shown are blood glucose levels in individual mice given no treatment (FIG. 9A), GABA alone (6 mgs/ml in drinking water) (FIG. 9B), or GABA+GAD/alum (100 μg sc on day 1 and 14) (FIG. 9C).

In test [5] the test system is syngenic islet grafts in diabetic NOD mice. The experiment in a line: Syngenic islet graft survival in diabetic NOD mice. The test is classed as in vivo. The note with it: diabetic NOD mice treated 28 days, then NOD.scid islets under kidney capsule; 10 week observation period (FIG. 8). The source says: Mice were given insulin as needed. After 28 days the mice received NOD.scid islets under their kidney capsule and insulin treatment was discontinued. Data shown are individual mouse blood glucose levels post-transplantation (FIG. 8A-8D). […] Dashed line indicates blood glucose of 250 mgs/dL.

Regarding `NCCCC(=O)O` [GABA, 4-aminobutanoic acid], the glucose tolerance result in test [1] (GABA 6 mg/ml in water (FIG. 3)) is “improved”. In addition, in test [1] (GABA 6 mg/ml in water (FIG. 4)), the insulin sensitivity entry was “improved”. Moreover, the “fasting blood glucose levels” value in test [1] (GABA 6 mg/ml in water (FIG. 5)) is “reduced”. In addition, the “HFD-induced obesity (body weight)” value in test [1] (GABA 6 mg/ml in water (FIG. 6)) was “mitigated”. Also, the “infiltration of macrophages into white adipose tissue” value in test [1] (GABA 6 mg/ml in water (FIG. 7, top panel)) was “inhibited”. The mass of adipocytes entry in test [1] (GABA 6 mg/ml in water (FIG. 7 bottom panel)) was “significantly reduced”. The Treg responses entry in test [2] was “can promote Treg responses”. Also, in test [3] (48 hours after STZ (FIG. 10B)), the “insulin-expressing cells per 100 islet cells” value is listed as “preserving insulin-expressing β-cell s”. In test [3], the “relative area of insulin+ cells to the total area of the islets” value is listed as “preserve the area of insulin producing β-cells”. Further, the “STZ mediated oxidative-stress-induced apoptosis” value in test [3] (GABA 2 mg/ml in water) and in test [3] (GABA 6 mgs/ml in water) was “significantly inhibits” throughout. The reversal of hyperglycemia entry in test [4] is listed as “prolongs a state of modest hyperglycemia for a short period, after which the mice progress to severe hyperglycemia”. Moreover, the “time until mice became diabetic again after receiving the graft” value in test [5] is listed as “about 3 weeks”.

Take “insulin B-chain: β-cell antigen used as antigen-based therapy”: the reversal of hyperglycemia entry in test [4] was “cannot reverse hyperglycemia”.

In the case of `NCC(CC(=O)O)c1ccc(Cl)cc1` (racemic) [baclofen, (RS)-4-amino-3-(4-chlorophenyl)butanoic acid, reference compound], in test [3], the “relative area of insulin+ cells to the total area of the islets” value is on record as “greater β-cell area, but this did not reach the level of statistical significance”. Further, in test [3] (baclofen in water), the “STZ mediated oxidative-stress-induced apoptosis” value is recorded as “significantly inhibits”.

As for “GAD/alum: glutamic acid decarboxylase (GAD) β-cell antigen vaccine given with alum adjuvant”, in test [4], the reversal of hyperglycemia result is “cannot reverse hyperglycemia”. In addition, the “time until mice became diabetic again after receiving the graft” value in test [5] is “about 3 weeks”.
